Reference: ChEMBL document CHEMBL3351888, “Synthesis and Pharmacological Evaluation of DHβE Analogues as Neuronal Nicotinic Acetylcholine Receptor Antagonists” (ACS Med Chem Lett, 2014)

Key:
[1] = target: Nicotinic acetylcholine receptor alpha-4/beta-2 (Mus musculus, UniProt Q8R493+Q9ERK7); experiment: Antagonist activity at mouse alpha4beta2 nAChR transfected in HEK293 cells by FLIPR membrane potential blue (FMP) assay; assay type: cell-based
[2] = target: T1, Neuronal acetylcholine receptor; alpha4/beta2 (Rattus norvegicus, UniProt P09483+P12390); experiment: Displacement of [3H]epibatidine from rat alpha4beta2 nAChR transfected in HEK293 cells after 4 hrs by scintillation count analysis; assay type: cell-based
T1 sequence (P09483 whole entry): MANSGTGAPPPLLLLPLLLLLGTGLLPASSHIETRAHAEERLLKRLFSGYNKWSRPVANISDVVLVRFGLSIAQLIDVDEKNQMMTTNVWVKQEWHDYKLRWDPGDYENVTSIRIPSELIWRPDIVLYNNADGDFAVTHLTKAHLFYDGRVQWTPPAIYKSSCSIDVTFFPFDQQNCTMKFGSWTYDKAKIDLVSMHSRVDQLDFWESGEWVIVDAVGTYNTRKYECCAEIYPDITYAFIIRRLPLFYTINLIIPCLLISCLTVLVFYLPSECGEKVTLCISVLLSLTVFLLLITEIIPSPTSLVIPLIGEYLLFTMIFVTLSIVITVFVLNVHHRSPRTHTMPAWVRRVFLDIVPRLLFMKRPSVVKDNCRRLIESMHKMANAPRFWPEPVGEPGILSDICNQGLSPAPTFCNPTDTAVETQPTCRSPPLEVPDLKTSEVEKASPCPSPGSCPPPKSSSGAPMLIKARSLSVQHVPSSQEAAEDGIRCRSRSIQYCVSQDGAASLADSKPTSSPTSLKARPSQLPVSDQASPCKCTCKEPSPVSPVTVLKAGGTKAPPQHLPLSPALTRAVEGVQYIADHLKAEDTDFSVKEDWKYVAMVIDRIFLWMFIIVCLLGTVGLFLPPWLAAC
T1 sequence (P12390 whole entry): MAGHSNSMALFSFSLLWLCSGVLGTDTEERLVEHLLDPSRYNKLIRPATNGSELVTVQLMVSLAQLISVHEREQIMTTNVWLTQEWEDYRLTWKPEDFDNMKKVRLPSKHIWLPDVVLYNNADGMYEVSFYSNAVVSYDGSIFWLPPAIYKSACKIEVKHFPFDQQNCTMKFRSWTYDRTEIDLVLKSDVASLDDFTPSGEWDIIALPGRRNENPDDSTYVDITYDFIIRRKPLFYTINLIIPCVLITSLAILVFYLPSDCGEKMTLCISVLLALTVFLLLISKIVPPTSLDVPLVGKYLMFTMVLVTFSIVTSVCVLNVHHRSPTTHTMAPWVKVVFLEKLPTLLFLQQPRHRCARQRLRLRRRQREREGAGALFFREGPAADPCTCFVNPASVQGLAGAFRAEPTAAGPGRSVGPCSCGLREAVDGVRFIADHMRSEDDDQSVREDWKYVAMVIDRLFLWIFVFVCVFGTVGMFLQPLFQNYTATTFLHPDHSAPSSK

[3] = target: T2, Neuronal acetylcholine receptor; alpha3/beta4 (Rattus norvegicus, UniProt P04757+P12392); experiment: Displacement of [3H]epibatidine from rat alpha3beta4 nAChR transfected in HEK293 cells after 4 hrs by scintillation count analysis; assay type: cell-based
T2 sequence (P04757 whole entry): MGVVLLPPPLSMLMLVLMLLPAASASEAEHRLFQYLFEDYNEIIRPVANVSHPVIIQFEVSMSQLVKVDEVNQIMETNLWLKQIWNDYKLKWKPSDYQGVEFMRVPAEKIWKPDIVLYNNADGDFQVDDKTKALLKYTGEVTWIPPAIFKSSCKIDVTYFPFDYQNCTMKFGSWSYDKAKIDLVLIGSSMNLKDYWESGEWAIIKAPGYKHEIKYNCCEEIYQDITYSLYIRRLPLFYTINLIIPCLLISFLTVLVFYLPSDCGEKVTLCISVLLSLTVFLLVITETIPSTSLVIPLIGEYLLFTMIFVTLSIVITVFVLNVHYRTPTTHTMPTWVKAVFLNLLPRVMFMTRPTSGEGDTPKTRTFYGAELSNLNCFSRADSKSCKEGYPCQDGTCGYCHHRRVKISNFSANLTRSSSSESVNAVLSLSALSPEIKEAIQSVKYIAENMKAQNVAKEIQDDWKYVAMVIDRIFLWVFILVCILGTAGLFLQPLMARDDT
T2 sequence (P12392 whole entry): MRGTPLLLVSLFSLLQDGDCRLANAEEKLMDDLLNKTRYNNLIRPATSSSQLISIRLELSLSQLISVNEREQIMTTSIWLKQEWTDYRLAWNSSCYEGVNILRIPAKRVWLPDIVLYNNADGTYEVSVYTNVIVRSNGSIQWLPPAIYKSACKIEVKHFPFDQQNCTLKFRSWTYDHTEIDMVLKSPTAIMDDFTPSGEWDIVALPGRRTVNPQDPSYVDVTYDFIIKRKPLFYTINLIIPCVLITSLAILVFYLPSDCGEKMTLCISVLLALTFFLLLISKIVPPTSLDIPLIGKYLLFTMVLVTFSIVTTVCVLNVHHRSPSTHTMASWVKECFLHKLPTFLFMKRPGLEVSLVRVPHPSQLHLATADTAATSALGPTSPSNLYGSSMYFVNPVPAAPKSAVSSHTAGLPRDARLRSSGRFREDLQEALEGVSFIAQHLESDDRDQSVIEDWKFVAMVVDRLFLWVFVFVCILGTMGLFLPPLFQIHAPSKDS

[4] = target: T2, Neuronal acetylcholine receptor; alpha3/beta4; experiment: Antagonist activity at rat alpha3beta4 nAChR transfected in HEK293 cells by FLIPR membrane potential blue (FMP) assay; assay type: cell-based
[5] = target: Neuronal acetylcholine receptor; alpha4/beta4 (Rattus norvegicus, UniProt P09483+P12392); experiment: Displacement of [3H]epibatidine from rat alpha4beta4 nAChR transfected in HEK293 cells after 4 hrs by scintillation count analysis; assay type: cell-based
Chain of Neuronal acetylcholine receptor; alpha4/beta4 (P09483 whole entry): as the sequence (P09483 whole entry) above
Chain of Neuronal acetylcholine receptor; alpha4/beta4 (P12392 whole entry): as the sequence (P12392 whole entry) above

[6] = target: T1, Neuronal acetylcholine receptor; alpha4/beta2; experiment: Inhibition of rat membrane alpha4beta2 nAChR by [3H]cytisine binding assay

Chain of Nicotinic acetylcholine receptor alpha-4/beta-2 (Q9ERK7 whole entry): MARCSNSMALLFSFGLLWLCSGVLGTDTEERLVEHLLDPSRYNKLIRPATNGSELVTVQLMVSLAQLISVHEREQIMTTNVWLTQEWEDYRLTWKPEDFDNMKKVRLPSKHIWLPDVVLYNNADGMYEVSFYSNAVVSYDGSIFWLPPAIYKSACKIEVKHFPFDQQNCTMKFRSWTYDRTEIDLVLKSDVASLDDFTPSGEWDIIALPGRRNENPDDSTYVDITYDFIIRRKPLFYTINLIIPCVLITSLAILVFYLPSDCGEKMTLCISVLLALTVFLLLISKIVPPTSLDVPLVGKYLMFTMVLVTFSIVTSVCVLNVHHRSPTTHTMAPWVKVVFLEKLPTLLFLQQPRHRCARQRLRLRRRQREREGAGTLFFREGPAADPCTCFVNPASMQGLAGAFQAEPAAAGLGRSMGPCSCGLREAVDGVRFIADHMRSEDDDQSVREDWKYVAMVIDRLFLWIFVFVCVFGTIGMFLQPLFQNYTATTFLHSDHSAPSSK
Chain of Nicotinic acetylcholine receptor alpha-4/beta-2 (Q8R493 whole entry): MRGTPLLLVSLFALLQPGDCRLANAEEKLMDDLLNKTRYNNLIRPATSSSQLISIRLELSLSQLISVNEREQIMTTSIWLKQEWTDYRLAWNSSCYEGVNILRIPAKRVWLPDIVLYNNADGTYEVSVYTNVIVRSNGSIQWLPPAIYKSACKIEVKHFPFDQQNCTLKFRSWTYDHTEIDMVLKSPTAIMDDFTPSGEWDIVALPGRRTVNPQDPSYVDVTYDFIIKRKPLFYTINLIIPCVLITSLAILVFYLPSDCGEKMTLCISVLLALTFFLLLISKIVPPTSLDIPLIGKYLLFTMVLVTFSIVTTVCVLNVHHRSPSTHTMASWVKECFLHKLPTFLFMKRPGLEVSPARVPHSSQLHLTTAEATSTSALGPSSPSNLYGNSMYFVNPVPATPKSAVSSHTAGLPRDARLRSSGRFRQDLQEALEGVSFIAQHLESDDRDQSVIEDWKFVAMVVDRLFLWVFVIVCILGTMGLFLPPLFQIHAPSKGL

| SMILES | IC50 [1] | Ki [2] | Ki [3] | IC50 [4] | Ki [5] | Ki [6] |
| --- | --- | --- | --- | --- | --- | --- |
| COCCO[C@H]1CC[C@H]2CCN(C)[C@H]2C1 (racemic) | > 300 µM | 300 µM | 300 µM | > 300 µM | > 300 µM | – |
| COCCO[C@H]1CC=C2CCN(C)[C@H]2C1 (racemic) | > 300 µM | > 300 µM | > 300 µM | > 300 µM | > 300 µM | – |
| CO[C@H]1CC=C2CCN3CCC4=C(CC(=O)OC4)[C@]23C1 | 1.2 µM | 0.82 µM | 100 µM | – | 100 µM | 0.14 µM |
| CO[C@H]1C=CC2=CCN3CCC4=C(CC(=O)OC4)[C@]23C1 | – | – | – | – | – | 1.1 µM |
| CN1CC[C@@H]2CC[C@H](OCc3ccccc3)C[C@@H]21 (racemic) | > 300 µM | 100 µM | 100 µM | > 300 µM | 300 µM | – |
| CCO[C@H]1CC=C2CCN(C)[C@H]2C1 (racemic) | > 300 µM | 300 µM | > 300 µM | > 300 µM | > 300 µM | – |
| CN1CCC2=CC[C@H](OCc3ccccc3)C[C@@H]21 (racemic) | > 300 µM | 300 µM | 300 µM | > 300 µM | 300 µM | – |
| CO[C@H]1C=CC2=CCN(C)[C@H]2C1 (racemic) | 100 µM | 30 µM | > 300 µM | > 300 µM | > 300 µM | – |
| CO[C@H]1CC=C2CCN(C)[C@H]2C1 (racemic) | 30 µM | 3.4 µM | 100 µM | > 300 µM | 100 µM | – |
| O[C@H]1CC[C@H]2CCN[C@H]2C1 (racemic) | > 100 µM | > 300 µM | > 300 µM | > 300 µM | > 300 µM | – |
| CO[C@H]1CC[C@H]2CCN(C)[C@H]2C1 (racemic) | > 300 µM | 300 µM | > 300 µM | > 300 µM | > 300 µM | – |
| CN1CC[C@@H]2CC[C@H](O)C[C@@H]21 (racemic) | > 300 µM | > 300 µM | > 300 µM | > 300 µM | > 300 µM | – |
| CO[C@H]1CC=C2CCN[C@H]2C1 (racemic) | 100 µM | 300 µM | > 300 µM | > 300 µM | > 300 µM | – |
| CO[C@H]1CC[C@H]2CCN3CCC4=C(CC(=O)OC4)[C@]23C1 | – | – | – | – | – | 7.4 µM |
| CCO[C@H]1CC[C@H]2CCN(C)[C@H]2C1 (racemic) | > 300 µM | 300 µM | 300 µM | > 300 µM | > 300 µM | – |
| O[C@H]1CC=C2CCN[C@H]2C1 (racemic) | > 300 µM | > 300 µM | > 300 µM | > 300 µM | > 300 µM | – |
| CN1CCC2=CC[C@H](O)C[C@@H]21 (racemic) | > 100 µM | 300 µM | > 300 µM | > 300 µM | > 300 µM | – |
